Source: patent US20250360069A1, “SUNSCREEN COMPOSITION FOR LACTOBACILLUS AND S. EPIDERMIDIS PROTECTION ON SKIN” (DSM IP Assets B.V., priority 2022, published 2025)

Assays:
[1] = system: Lactobacillus crispatus CIP 103604; test: In vitro UV model: bacterial survival upon UV irradiation (96-well, MPN count); assay type: cell-based; conditions: sample 20% v/v, UV 50 SED (500 mJ/cm^2 UVA+UVB), after 4 h; for L. crispatus survival: compared to untreated and non-irradiated control
Description: (§1) The microbial strains used in this study are listed below and their cultures are reconstituted according to the direction of the supplier collection center of the reference strain, CRBIP (Institut Pasteur Collection, France) or ATCC (American Type Culture Collection, USA): • Lactobacillus crispatus CIP 103604 • Staphylococcus epidermidis ATCC 12228 The 96-well plate was filled with the culture media (140 μL) and a calibrated inoculum (20 μL) of each bacterial strain was added to reach […] colony forming units per milliliter (cfu/mL) final concentration. After contamination, the sample was added (40 μL; 20% v/v) in triplicate and was thoroughly mixed to ensure a homogeneous distribution. Then, the plate was submitted to UV stress through an UV irradiator system (BioSun, Vilber Lourmat, France) according to the UV doses presented Table 1 below. The specific UV dose selected was between 10 and 49% survival of the microbial population. For the microbial population counts, aliquots of the contaminated samples of L. crispatus and S. epidermidis were serially diluted (4 decimal dilutions followed by 8 binary dilutions, in triplicate) in culture media on 96-wells plates with triphenyltetrazolium. Then, the plates were incubated at 37° C.±2,5° C. during 48 h taking into account the respiratory type of each strain. After 48 h at the optimal growing conditions, the last dilution showing a pink color (triphenyltetrazolium) or turbidity indicated the contamination rate and allowed the determination of the decrease rate of microbial population (most probable number MPN method). Controls performed during this experiment were the culture medium with bacteria incubated without UV stress. The microbial population counts were expressed in cfu/mL and were the average of experiment done in triplicate. The use level of the single UV filter and combinations in the test formulations was calculated to obtain a predicted in vitro SPF value of 5.75+/−0.15 and 23.45+/−0.65, respectively (Table 2). The UV filters were mixed in the two oils, Tegosoft XC (55%) and Miglyol 829 Eco (ad100%) and the emulsifier Tween 80 (5%). The effect of selected UV irradiation conditions on the survival of microbial population of L. crispatus and S. epidermidis in the presence of the tested samples 1-10 at 20% v/v, was compared with the corresponding strain in the absence of samples 1-10 and without exposure to UV irradiation (control). The results after the 4-hour incubation were compared to the population of bacteria incubated without UV stress (determination of bacterial population survival) and were expressed in percentage of survival. The relative percentage of protection (%) was calculated from the difference between the survival percentages of samples and vehicle control (with UV irradiation) and divided to the survival percentage of the vehicle control. Consequently, the survival of each microbial population and the relative protection by the UV filter(s) were calculated and are summarized in the Table 2.

[2] = system: Staphylococcus epidermidis ATCC 12228; test: as above; assay type: cell-based; conditions: sample 20% v/v, UV 15 SED (150 mJ/cm^2 UVA+UVB), after 4 h; for S. epidermidis survival: compared to untreated and non-irradiated control
Description: as §1

CCCCC(CC)COC(=O)C(C#N)=C(c1ccccc1)c1ccccc1 (stereo not shown) [Inv. 1, Octocrylene]
L. crispatus relative protection by the UV filter(s) vs. vehicle control [1]: (+300) % | L. crispatus survival [1]: 50% | S. epidermidis relative protection by the UV filter(s) vs. vehicle control [2]: (+59) % | S. epidermidis survival [2]: 63%

CCCCC(CC)COC(=O)c1ccc(Nc2nc(Nc3ccc(C(=O)OCC(CC)CCCC)cc3)nc(Nc3ccc(C(=O)OCC(CC)CCCC)cc3)n2)cc1 (stereo not shown) [Inv. 3, Ethylhexyl Triazone]
L. crispatus relative protection by the UV filter(s) vs. vehicle control [1]: (+100) % | L. crispatus survival [1]: 25% | S. epidermidis relative protection by the UV filter(s) vs. vehicle control [2]: (+59) % | S. epidermidis survival [2]: 63%

CCCCC(CC)COC(=O)c1ccccc1O (stereo not shown) [Ref. 1, Ethylhexyl Salicylate]
L. crispatus relative protection by the UV filter(s) vs. vehicle control [1]: (+59) % | L. crispatus survival [1]: 20% | S. epidermidis relative protection by the UV filter(s) vs. vehicle control [2]: (+100) % | S. epidermidis survival [2]: 79%

CCCCC(CC)COc1ccc(-c2nc(-c3ccc(OC)cc3)nc(-c3ccc(OCC(CC)CCCC)cc3O)n2)c(O)c1 (stereo not shown) [Ref. 2, Bis-Ethylhexyloxyphenol Methoxyphenyl Triazine]
L. crispatus relative protection by the UV filter(s) vs. vehicle control [1]: (+59) % | L. crispatus survival [1]: 20% | S. epidermidis relative protection by the UV filter(s) vs. vehicle control [2]: (+100) % | S. epidermidis survival [2]: 79%
